Measured values reported in patent publication US8436178B2, “Imidazoquinolines with immuno-modulating properties” (AstraZeneca AB, priority 2007, dated 2013).
Counter-ions that a name gives are not always drawn.

Biological target: T1, human TLR7 (Homo sapiens, UniProt Q9NYK1)
T1 construct: expressed in transfected cells; host or cells: HEK293 cell line stably expressing the pNiFty2-SEAP reporter plasmid; TLR7 in pUNO vector, blasticidin selection
T1 sequence (Q9NYK1 27-1049): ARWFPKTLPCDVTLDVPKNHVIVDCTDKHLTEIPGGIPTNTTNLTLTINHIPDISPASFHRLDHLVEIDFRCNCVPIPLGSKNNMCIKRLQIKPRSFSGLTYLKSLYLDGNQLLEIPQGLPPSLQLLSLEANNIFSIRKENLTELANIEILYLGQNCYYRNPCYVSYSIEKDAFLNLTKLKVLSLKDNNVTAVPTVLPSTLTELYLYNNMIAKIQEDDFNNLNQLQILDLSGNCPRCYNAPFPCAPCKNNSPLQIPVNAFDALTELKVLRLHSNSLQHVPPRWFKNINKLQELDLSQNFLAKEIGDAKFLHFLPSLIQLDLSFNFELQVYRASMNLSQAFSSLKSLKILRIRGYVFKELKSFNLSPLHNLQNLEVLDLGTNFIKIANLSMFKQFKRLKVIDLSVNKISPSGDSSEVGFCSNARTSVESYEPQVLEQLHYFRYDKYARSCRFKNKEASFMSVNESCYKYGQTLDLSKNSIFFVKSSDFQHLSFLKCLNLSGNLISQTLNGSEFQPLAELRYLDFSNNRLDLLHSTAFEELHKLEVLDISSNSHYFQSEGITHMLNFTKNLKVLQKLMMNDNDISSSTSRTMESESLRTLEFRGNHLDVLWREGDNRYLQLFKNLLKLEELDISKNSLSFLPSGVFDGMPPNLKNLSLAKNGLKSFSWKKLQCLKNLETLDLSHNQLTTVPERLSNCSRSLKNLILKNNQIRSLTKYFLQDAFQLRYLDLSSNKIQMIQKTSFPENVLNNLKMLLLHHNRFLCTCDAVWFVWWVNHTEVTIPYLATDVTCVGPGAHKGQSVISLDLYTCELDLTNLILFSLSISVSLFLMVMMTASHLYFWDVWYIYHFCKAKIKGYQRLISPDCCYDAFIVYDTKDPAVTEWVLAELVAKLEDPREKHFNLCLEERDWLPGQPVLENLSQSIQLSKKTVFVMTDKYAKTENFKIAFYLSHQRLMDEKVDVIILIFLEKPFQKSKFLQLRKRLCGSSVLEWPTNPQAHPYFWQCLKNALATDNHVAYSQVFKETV
Assay: Human TLR7 assay (SEAP reporter in HEK293 cells)
Format: cell-based
Conditions: SEAP induction in HEK293 cells expressing human TLR7, overnight incubation at 37° C., 0.1% DMSO
Source text: The most common variant sequence of human TLR7 (represented by the EMBL sequence AF240467) was cloned into the mammalian cell expression vector pUNO and transfected into a HEK293 cell line already stably expressing the pNiFty2-SEAP reporter plasmid; integration of the reporter gene was maintained by selection with the antibiotic zeocin. Transfectants with stable TLR7 expression were selected using the antibiotic blasticidin. In this reporter cell-line, expression of secreted alkaline phosphatase (SEAP) is controlled by an NFkB/ELAM-1 composite promoter comprising five NFkB sites combined with the proximal ELAM-1 promoter. TLR signaling leads to the translocation of NFkB and activation of the promoter results in expression of the SEAP gene. TLR7-specific activation was assessed by determining the level of SEAP produced following overnight incubation of the cells at 37° C. with the standard compound in the presence of 0.1% (v/v) dimethylsulfoxide (DMSO). Concentration dependent induction of SEAP production by compounds was expressed as the concentration of compound which produced half of the maximal level of SEAP induction for that compound (pEC50).

Row | EC50 [µM] | Compound
1 | 0.0398 | CCCCc1nc2c(N)nc3ccccc3c2n1CCCN(Cc1ccc(CC(=O)OC)cc1)C(=O)CN1CCC(CC(=O)OCC)CC1 [Example 27, Ethyl 2-(1-(2-((3-(4-amino-2-butyl-1H-imidazo[4,5-c]quinolin-1-yl)propyl)(4-(2-methoxy-2-oxoethyl)benzyl)amino)-2-oxoethyl)piperidin-4-yl)acetate]
2 | 0.2 | CCCCc1nc2c(N)nc3ccccc3c2n1CCCN(Cc1ccc(CC(=O)OC)cc1)C(=O)CN1CCC(C(=O)OC)CC1 [Example 28, Methyl 1-(2-((3-(4-amino-2-butyl-1H-imidazo[4,5-c]quinolin-1-yl)propyl)(4-(2-methoxy-2-oxoethyl)benzyl)amino)-2-oxoethyl)piperidine-4-carboxylate]
3 | 0.1 | COCCc1nc2c(N)nc3ccccc3c2n1CCCN(Cc1ccc(CC(=O)OC)cc1)C(=O)CN1CCCCC1 [Example 29, Methyl 2-(4-((N-(3-(4-amino-2-(2-methoxyethyl)-1H-imidazo[4,5-c]quinolin-1-yl)propyl)-2-(piperidin-1-yl)acetamido)methyl)phenyl)acetate]
4 | 0.2 | COCCc1nc2c(N)nc3ccccc3c2n1CCCN(Cc1ccc(CC(=O)OC)cc1)C(=O)CN(C)C [Example 30, Methyl 2-(4-((N-(3-(4-amino-2-(2-methoxyethyl)-1H-imidazo[4,5-c]quinolin-1-yl)propyl)-2-(dimethylamino)acetamido)methyl)phenyl)acetate]
5 | 0.158 | COCCc1nc2c(N)nc3ccccc3c2n1CCCN(Cc1cccc(CC(=O)OC)c1)C(=O)CN1CCCCC1 [Example 31, Methyl 2-(3-((N-(3-(4-amino-2-(2-methoxyethyl)-1H-imidazo[4,5-c]quinolin-1-yl)propyl)-2-(piperidin-1-yl)acetamido)methyl)phenyl)acetate saccharin salt]
6 | 0.158 | COCCc1nc2c(N)nc3ccccc3c2n1CCCN(Cc1ccc(CC(=O)OC)cc1)C(=O)CN(C)CCOC [Example 32, Methyl 2-(4-((N-(3-(4-amino-2-(2-methoxyethyl)-1H-imidazo[4,5-c]quinolin-1-yl)propyl)-2-((2-methoxyethyl)(methyl)amino)acetamido)methyl)phenyl)acetate]
7 | 0.158 | COCCc1nc2c(N)nc3ccccc3c2n1CCCN(Cc1ccc(CC(=O)OC)cc1)C(=O)CCN1CCCCC1 [Example 33, Methyl 2-(4-((N-(3-(4-amino-2-(2-methoxyethyl)-1H-imidazo[4,5-c]quinolin-1-yl)propyl)-3-(piperidin-1-yl)propanamido)methyl)phenyl)acetate]
8 | 0.316 | COCCc1nc2c(N)nc3ccccc3c2n1CCCN(CCCN1CCOCC1)Cc1ccc(CC(=O)OC)cc1 [Example 34, Methyl 2-(4-(((3-(4-amino-2-(2-methoxyethyl)-1H-imidazo[4,5-c]quinolin-1-yl)propyl)(3-morpholinopropyl)amino)methyl)phenyl)acetate]
9 | 0.398 | COCCc1nc2c(N)nc3ccccc3c2n1CCCN(Cc1ccc(CC(=O)OC)cc1)C(=O)CN1CCCC1 [Example 37, Methyl 2-(4-((N-(3-(4-amino-2-(2-methoxyethyl)-1H-imidazo[4,5-c]quinolin-1-yl)propyl)-2-(pyrrolidin-1-yl)acetamido)methyl)phenyl)acetate disaccharin salt]
10 | 1.58 | COCCc1nc2c(N)nc3ccccc3c2n1CCCN(Cc1ccc(CC(=O)OC)cc1)C(=O)CN(C)CCO [Example 38, Methyl 2-(4-((N-(3-(4-amino-2-(2-methoxyethyl)-1H-imidazo[4,5-c]quinolin-1-yl)propyl)-2-((2-hydroxyethyl)(methyl)amino)acetamido)methyl)phenyl)acetate disaccharin salt]
11 | 0.158 | CCCCc1nc2c(N)nc3ccccc3c2n1CCCN(Cc1cccc(CC(=O)OC)c1)C(=O)CN(C)CCOC [Example 39, Methyl 2-(3-((N-(3-(4-amino-2-butyl-1H-imidazo[4,5-c]quinolin-1-yl)propyl)-2-((2-methoxyethyl)(methyl)amino)acetamido)methyl)phenyl)acetate]
12 | 0.126 | CCCCc1nc2c(N)nc3ccccc3c2n1CCCN(Cc1cccc(CC(=O)OC)c1)C(=O)CN(C)CCCC [Example 40, Methyl 2-(3-((N-(3-(4-amino-2-butyl-1H-imidazo[4,5-c]quinolin-1-yl)propyl)-2-(butyl(methyl)amino)acetamido)methyl)phenyl)acetate]
13 | 0.0794 | CCCCc1nc2c(N)nc3ccccc3c2n1CCCN(Cc1cccc(CC(=O)OC)c1)C(=O)CN(CCC)CCC [Example 41]
14 | 1.58 | CCCCc1nc2c(N)nc3ccccc3c2n1CCCN(Cc1cccc(CC(=O)OC)c1)C(=O)CN(CCO)CCO [Example 42, Methyl 2-(3-((N-(3-(4-amino-2-butyl-1H-imidazo[4,5-c]quinolin-1-yl)propyl)-2-(bis(2-hydroxyethyl)amino)acetamido)methyl)phenyl)acetate]
15 | 0.126 | CCCCc1nc2c(N)nc3ccccc3c2n1CCCN(Cc1cccc(CC(=O)OC)c1)C(=O)CN(C)C1CCOCC1 [Example 43, Methyl 2-(3-((N-(3-(4-amino-2-butyl-1H-imidazo[4,5-c]quinolin-1-yl)propyl)-2-(methyl(tetrahydro-2H-pyran-4-yl)amino)acetamido)methyl)phenyl)acetate]
16 | 0.251 | CCCCc1nc2c(N)nc3ccccc3c2n1CCCN(Cc1cccc(CC(=O)OC)c1)C(=O)CN1CCC1 [Example 44, Methyl 2-(3-((N-(3-(4-amino-2-butyl-1H-imidazo[4,5-c]quinolin-1-yl)propyl)-2-(azetidin-1-yl)acetamido)methyl)phenyl)acetate]
17 | 1.58 | CCCCc1nc2c(N)nc3ccccc3c2n1CCCN(Cc1cccc(CC(=O)OC)c1)C(=O)CN1CC(O)C1 [Example 45, Methyl 2-(3-((N-(3-(4-amino-2-butyl-1H-imidazo[4,5-c]quinolin-1-yl)propyl)-2-(3-hydroxyazetidin-1-yl)acetamido)methyl)phenyl)acetate]
18 | 0.0631 | CCCCc1nc2c(N)nc3ccccc3c2n1CCCN(Cc1cccc(CC(=O)OC)c1)C(=O)CN1CCCC1 [Example 46, Methyl 2-(3-((N-(3-(4-amino-2-butyl-1H-imidazo[4,5-c]quinolin-1-yl)propyl)-2-(pyrrolidin-1-yl)acetamido)methyl)phenyl)acetate]
19 | 0.398 | CCCCc1nc2c(N)nc3ccccc3c2n1CCCN(Cc1cccc(CC(=O)OC)c1)C(=O)CN1CCC(O)C1 (stereo not drawn) [Example 47, Methyl 2-(3-((N-(3-(4-amino-2-butyl-1H-imidazo[4,5-c]quinolin-1-yl)propyl)-2-(3-hydroxypyrrolidin-1-yl)acetamido)methyl)phenyl)acetate]
20 | 0.398 | CCCCc1nc2c(N)nc3ccccc3c2n1CCCN(Cc1cccc(CC(=O)OC)c1)C(=O)CN1CC[C@@H](O)C1 [Example 48, (R)-Methyl 2-(3-((N-(3-(4-amino-2-butyl-1H-imidazo[4,5-c]quinolin-1-yl)propyl)-2-(3-hydroxypyrrolidin-1-yl)acetamido)methyl)phenyl)acetate]
21 | 0.0794 | CCCCc1nc2c(N)nc3ccccc3c2n1CCCN(Cc1cccc(CC(=O)OC)c1)C(=O)CN1CCCCC1 [Example 49, Methyl 2-(3-((N-(3-(4-amino-2-butyl-1H-imidazo[4,5-c]quinolin-1-yl)propyl)-2-(piperidin-1-yl)acetamido)methyl)phenyl)acetate]
22 | 0.501 | CCCCc1nc2c(N)nc3ccccc3c2n1CCCN(Cc1cccc(CC(=O)OC)c1)C(=O)CN1CCC(O)CC1 [Example 50, Methyl 2-(3-((N-(3-(4-amino-2-butyl-1H-imidazo[4,5-c]quinolin-1-yl)propyl)-2-(4-hydroxypiperidin-1-yl)acetamido)methyl)phenyl)acetate]

Row | Compound | EC50 [µM]
23 | CCCCc1nc2c(N)nc3ccccc3c2n1CCCN(Cc1ccc(CC(=O)OC)cc1)C(=O)CN1CCC(NC(=O)OC(C)(C)C)CC1 [Example 25, Methyl 2-(4-((N-(3-(4-amino-2-butyl-1H-imidazo[4,5-c]quinolin-1-yl)propyl)-2-(4-(tert-butoxycarbonylamino)piperidin-1-yl)acetamido)methyl)phenyl)acetate] | 0.2
24 | CCCCc1nc2c(N)nc3ccccc3c2n1CCCN(Cc1ccc(CC(=O)OC)cc1)C(=O)CN1CCC(N(C)C(=O)OC(C)(C)C)CC1 [Example 26, Methyl 2-(4-((N-(3-(4-amino-2-butyl-1H-imidazo[4,5-c]quinolin-1-yl)propyl)-2-(4-(tert-butoxycarbonyl(methyl)amino)piperidin-1-yl)acetamido)methyl)phenyl)acetate] | 0.316
